Each molecule was assayed on D-502MG (assay: cells). Conditions: Homo sapiens, D-502MG.
Type: functional, cell-based, Homo sapiens
Description: SANGER: Inhibition of human D-502MG cell growth in a cell viability assay.
Molecule `CCN(CC)CCNC(=O)c1c(C)[nH]c(/C=C2\C(=O)Nc3ccc(F)cc32)c1C` [SUNITINIB] has an IC50 greater than 8 µM.

Each molecule was assayed on DEL (assay: cells). Conditions: Homo sapiens, DEL.
Type: functional, cell-based, Homo sapiens
Description: SANGER: Inhibition of human DEL cell growth in a cell viability assay.
Work on `CCN(CC)CCNC(=O)c1c(C)[nH]c(/C=C2\C(=O)Nc3ccc(F)cc32)c1C` [SUNITINIB] yielded an IC50 of 2.08 µM.

What follows are molecules tested on DMS-114 (assay: cells). Conditions: Homo sapiens, DMS-114.
Type: functional, cell-based, Homo sapiens
`CCN(CC)CCNC(=O)c1c(C)[nH]c(/C=C2\C(=O)Nc3ccc(F)cc32)c1C` [SUNITINIB] gave an IC50 greater than 8 µM.

The molecules below were run on DOHH-2 (assay: cells). Conditions: Homo sapiens, DOHH-2.
Type: functional, cell-based, Homo sapiens
Description: SANGER: Inhibition of human DOHH-2 cell growth in a cell viability assay.
For `CCN(CC)CCNC(=O)c1c(C)[nH]c(/C=C2\C(=O)Nc3ccc(F)cc32)c1C` [SUNITINIB], the IC50 was 2.33 µM.

Each molecule was assayed on EM-2 (assay: cells). Conditions: Homo sapiens, EM-2.
Type: functional, cell-based, Homo sapiens
Description: SANGER: Inhibition of human EM-2 cell growth in a cell viability assay.
`CCN(CC)CCNC(=O)c1c(C)[nH]c(/C=C2\C(=O)Nc3ccc(F)cc32)c1C` [SUNITINIB] was tested, and the IC50 was greater than 8 µM.

What follows are molecules tested on ES3 (assay: cells). Conditions: Homo sapiens, ES3.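 Also: growth inhibition of ES3 cells, read out with a cell viability assay.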
Type: functional, cell-based, Homo sapiens
Description: SANGER: Inhibition of human ES3 cell growth in a cell viability assay.
Work on `CCN(CC)CCNC(=O)c1c(C)[nH]c(/C=C2\C(=O)Nc3ccc(F)cc32)c1C` [SUNITINIB] yielded an IC50 greater than 8 µM.

These molecules were tested on ETK-1 (assay: cells). Conditions: Homo sapiens, ETK-1.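 Also: growth inhibition of human ETK-1 cells, read out with a cell viability assay.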
Type: functional, cell-based, Homo sapiens
Description: SANGER: Inhibition of human ETK-1 cell growth in a cell viability assay.
`CCN(CC)CCNC(=O)c1c(C)[nH]c(/C=C2\C(=O)Nc3ccc(F)cc32)c1C` [SUNITINIB] showed an IC50 of 1.29 µM.

What follows are molecules tested on EW-11 (assay: cells). Conditions: Homo sapiens, EW-11.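 Also: growth inhibition of human EW-11 cells, measured with a cell viability assay.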
Type: functional, cell-based, Homo sapiens
Description: SANGER: Inhibition of human EW-11 cell growth in a cell viability assay.
`CCN(CC)CCNC(=O)c1c(C)[nH]c(/C=C2\C(=O)Nc3ccc(F)cc32)c1C` [SUNITINIB] gave an IC50 greater than 8 µM.

The molecules below were run on EW-13 (assay: cells). Conditions: Homo sapiens, EW-13.
Type: functional, cell-based, Homo sapiens
Description: SANGER: Inhibition of human EW-13 cell growth in a cell viability assay.
Molecule `CCN(CC)CCNC(=O)c1c(C)[nH]c(/C=C2\C(=O)Nc3ccc(F)cc32)c1C` [SUNITINIB] has an IC50 greater than 8 µM.

What follows are molecules tested on EW-3 (assay: cells). Conditions: Homo sapiens, EW-3.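 Also: cell viability assay read-out, IC50 reflects inhibition of growth of the EW-3 cells.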
Type: functional, cell-based, Homo sapiens
Description: SANGER: Inhibition of human EW-3 cell growth in a cell viability assay.
`CCN(CC)CCNC(=O)c1c(C)[nH]c(/C=C2\C(=O)Nc3ccc(F)cc32)c1C` [SUNITINIB] was tested, and the IC50 was 6.43 µM.

What follows are molecules tested on HCE-T (assay: cells). Conditions: Homo sapiens, HCE-T.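 Also: cell viability assay read-out, reporting inhibition of HCE-T cell growth.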
Type: functional, cell-based, Homo sapiens
Description: SANGER: Inhibition of human HCE-T cell growth in a cell viability assay.
In the case of `CCN(CC)CCNC(=O)c1c(C)[nH]c(/C=C2\C(=O)Nc3ccc(F)cc32)c1C` [SUNITINIB], the IC50 is reported as greater than 8 µM.

Each molecule was assayed on HH (assay: cells). Conditions: Homo sapiens, HH.
Type: functional, cell-based, Homo sapiens
Description: SANGER: Inhibition of human HH cell growth in a cell viability assay.
`CCN(CC)CCNC(=O)c1c(C)[nH]c(/C=C2\C(=O)Nc3ccc(F)cc32)c1C` [SUNITINIB] gave an IC50 of 4.21 µM.

What follows are molecules tested on IST-SL1 (assay: cells). Conditions: Homo sapiens, IST-SL1.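 Also: growth inhibition of human IST-SL1 cells, read out with a cell viability assay.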
Type: functional, cell-based, Homo sapiens
Description: SANGER: Inhibition of human IST-SL1 cell growth in a cell viability assay.
Molecule `CCN(CC)CCNC(=O)c1c(C)[nH]c(/C=C2\C(=O)Nc3ccc(F)cc32)c1C` [SUNITINIB] has an IC50 greater than 8 µM.

These molecules were tested on JVM-2 (assay: cells). Conditions: Homo sapiens, JVM-2.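 Also: growth inhibition of JVM-2 cells determined by a cell viability assay.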
Type: functional, cell-based, Homo sapiens
Description: SANGER: Inhibition of human JVM-2 cell growth in a cell viability assay.
`CCN(CC)CCNC(=O)c1c(C)[nH]c(/C=C2\C(=O)Nc3ccc(F)cc32)c1C` [SUNITINIB] was tested, and the IC50 was greater than 8 µM.

These molecules were tested on JVM-3 (assay: cells). Conditions: Homo sapiens, JVM-3.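 Also: growth inhibition of human JVM-3 cells, read out with a cell viability assay.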
Type: functional, cell-based, Homo sapiens
Description: SANGER: Inhibition of human JVM-3 cell growth in a cell viability assay.
Molecule `CCN(CC)CCNC(=O)c1c(C)[nH]c(/C=C2\C(=O)Nc3ccc(F)cc32)c1C` [SUNITINIB] has an IC50 greater than 8 µM.

What follows are molecules tested on K5 (assay: cells). Conditions: Homo sapiens, K5.
Type: functional, cell-based, Homo sapiens
Description: SANGER: Inhibition of human K5 cell growth in a cell viability assay.
Molecule `CCN(CC)CCNC(=O)c1c(C)[nH]c(/C=C2\C(=O)Nc3ccc(F)cc32)c1C` [SUNITINIB] has an IC50 greater than 8 µM.

These molecules were tested on KALS-1 (assay: cells). Conditions: Homo sapiens, KALS-1.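 Also: growth inhibition of KALS-1 cells, determined with a cell viability assay.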
Type: functional, cell-based, Homo sapiens
Description: SANGER: Inhibition of human KALS-1 cell growth in a cell viability assay.
`CCN(CC)CCNC(=O)c1c(C)[nH]c(/C=C2\C(=O)Nc3ccc(F)cc32)c1C` [SUNITINIB] gave an IC50 greater than 8 µM.

Each molecule was assayed on KARPAS-45 (assay: cells). Conditions: Homo sapiens, KARPAS-45.
Type: functional, cell-based, Homo sapiens
Description: SANGER: Inhibition of human KARPAS-45 cell growth in a cell viability assay.
Work on `CCN(CC)CCNC(=O)c1c(C)[nH]c(/C=C2\C(=O)Nc3ccc(F)cc32)c1C` [SUNITINIB] yielded an IC50 of 2.49 µM.

Each molecule was assayed on KGN (assay: cells). Conditions: Homo sapiens, KGN.
Type: functional, cell-based, Homo sapiens
Description: SANGER: Inhibition of human KGN cell growth in a cell viability assay.
`CCN(CC)CCNC(=O)c1c(C)[nH]c(/C=C2\C(=O)Nc3ccc(F)cc32)c1C` [SUNITINIB] was tested, and the IC50 was 2.6 µM.

Each molecule was assayed on KNS-42 (assay: cells). Conditions: Homo sapiens, KNS-42.
Type: functional, cell-based, Homo sapiens
Description: SANGER: Inhibition of human KNS-42 cell growth in a cell viability assay.
`CCN(CC)CCNC(=O)c1c(C)[nH]c(/C=C2\C(=O)Nc3ccc(F)cc32)c1C` [SUNITINIB] was tested, and the IC50 was greater than 8 µM.

Each molecule was assayed on LAMA-84 (assay: cells). Conditions: Homo sapiens, LAMA-84.
Type: functional, cell-based, Homo sapiens
Description: SANGER: Inhibition of human LAMA-84 cell growth in a cell viability assay.
For `CCN(CC)CCNC(=O)c1c(C)[nH]c(/C=C2\C(=O)Nc3ccc(F)cc32)c1C` [SUNITINIB], the IC50 was 2.7 µM.

The molecules below were run on LB2518-MEL (assay: cells). Conditions: Homo sapiens, LB2518-MEL.
Type: functional, cell-based, Homo sapiens
Description: SANGER: Inhibition of human LB2518-MEL cell growth in a cell viability assay.
Work on `CCN(CC)CCNC(=O)c1c(C)[nH]c(/C=C2\C(=O)Nc3ccc(F)cc32)c1C` [SUNITINIB] yielded an IC50 greater than 8 µM.

The molecules below were run on LB771-HNC (assay: cells). Conditions: Homo sapiens, LB771-HNC.
Type: functional, cell-based, Homo sapiens
Description: SANGER: Inhibition of human LB771-HNC cell growth in a cell viability assay.
Work on `CCN(CC)CCNC(=O)c1c(C)[nH]c(/C=C2\C(=O)Nc3ccc(F)cc32)c1C` [SUNITINIB] yielded an IC50 greater than 8 µM.

What follows are molecules tested on LB831-BLC (assay: cells). Conditions: Homo sapiens, LB831-BLC.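 Also: growth inhibition of LB831-BLC cells, read out with a cell viability assay.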
Type: functional, cell-based, Homo sapiens
Description: SANGER: Inhibition of human LB831-BLC cell growth in a cell viability assay.
Work on `CCN(CC)CCNC(=O)c1c(C)[nH]c(/C=C2\C(=O)Nc3ccc(F)cc32)c1C` [SUNITINIB] yielded an IC50 greater than 8 µM.

What follows are molecules tested on LS-411N (assay: cells). Conditions: Homo sapiens, LS-411N.
Type: functional, cell-based, Homo sapiens
Work on `CCN(CC)CCNC(=O)c1c(C)[nH]c(/C=C2\C(=O)Nc3ccc(F)cc32)c1C` [SUNITINIB] yielded an IC50 greater than 8 µM.

Each molecule was assayed on LS-513 (assay: cells). Conditions: Homo sapiens, LS-513.
Type: functional, cell-based, Homo sapiens
Description: SANGER: Inhibition of human LS-513 cell growth in a cell viability assay.
In the case of `CCN(CC)CCNC(=O)c1c(C)[nH]c(/C=C2\C(=O)Nc3ccc(F)cc32)c1C` [SUNITINIB], the IC50 is reported as greater than 8 µM.

What follows are molecules tested on MFM-223 (assay: cells). Conditions: Homo sapiens, MFM-223.
Type: functional, cell-based, Homo sapiens
Description: SANGER: Inhibition of human MFM-223 cell growth in a cell viability assay.
`CCN(CC)CCNC(=O)c1c(C)[nH]c(/C=C2\C(=O)Nc3ccc(F)cc32)c1C` [SUNITINIB] gave an IC50 greater than 8 µM.

These molecules were tested on MN-60 (assay: cells). Conditions: Homo sapiens, MN-60.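 Also: growth inhibition of the MN-60 cell line, determined with a cell viability assay.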
Type: functional, cell-based, Homo sapiens
Description: SANGER: Inhibition of human MN-60 cell growth in a cell viability assay.
`CCN(CC)CCNC(=O)c1c(C)[nH]c(/C=C2\C(=O)Nc3ccc(F)cc32)c1C` [SUNITINIB] was tested, and the IC50 was 7.54 µM.

These molecules were tested on MS-1 (assay: cells). Conditions: Homo sapiens, MS-1.
Type: functional, cell-based, Homo sapiens
Description: SANGER: Inhibition of human MS-1 cell growth in a cell viability assay.
With `CCN(CC)CCNC(=O)c1c(C)[nH]c(/C=C2\C(=O)Nc3ccc(F)cc32)c1C` [SUNITINIB] the IC50 was 3.84 µM.

These molecules were tested on MV4-11 (assay: cells). Conditions: Homo sapiens, MV4-11.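 Also: cell viability readout measuring growth inhibition of human MV-4-11 cells.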
Type: functional, cell-based, Homo sapiens, MV-4-11
Description: SANGER: Inhibition of human MV-4-11 cell growth in a cell viability assay.
`CCN(CC)CCNC(=O)c1c(C)[nH]c(/C=C2\C(=O)Nc3ccc(F)cc32)c1C` [SUNITINIB] was tested, and the IC50 was less than 0.0312 µM.

What follows are molecules tested on NB17 (assay: cells). Conditions: Homo sapiens, NB17.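 Also: growth inhibition of NB17 cells, read out with a cell viability assay.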
Type: functional, cell-based, Homo sapiens
Description: SANGER: Inhibition of human NB17 cell growth in a cell viability assay.
`CCN(CC)CCNC(=O)c1c(C)[nH]c(/C=C2\C(=O)Nc3ccc(F)cc32)c1C` [SUNITINIB] was tested, and the IC50 was greater than 8 µM.

What follows are molecules tested on NCI-H1355 (assay: cells). Conditions: Homo sapiens, NCI-H1355.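 Also: growth inhibition of human NCI-H1355 cells, read out by a cell viability assay.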
Type: functional, cell-based, Homo sapiens
Description: SANGER: Inhibition of human NCI-H1355 cell growth in a cell viability assay.
`CCN(CC)CCNC(=O)c1c(C)[nH]c(/C=C2\C(=O)Nc3ccc(F)cc32)c1C` [SUNITINIB] showed an IC50 of 7.46 µM.

What follows are molecules tested on NCI-H526 (assay: cells). Conditions: Homo sapiens, NCI-H526.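 Also: growth inhibition of the human NCI-H526 cell line, measured by a cell viability assay.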
Type: functional, cell-based, Homo sapiens
Description: SANGER: Inhibition of human NCI-H526 cell growth in a cell viability assay.
`CCN(CC)CCNC(=O)c1c(C)[nH]c(/C=C2\C(=O)Nc3ccc(F)cc32)c1C` [SUNITINIB] was tested, and the IC50 was greater than 8 µM.

These molecules were tested on NMC-G1 (assay: cells). Conditions: Homo sapiens, NMC-G1.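 Also: growth inhibition of the NMC-G1 cell line, measured with a cell viability read-out.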
Type: functional, cell-based, Homo sapiens
Description: SANGER: Inhibition of human NMC-G1 cell growth in a cell viability assay.
`CCN(CC)CCNC(=O)c1c(C)[nH]c(/C=C2\C(=O)Nc3ccc(F)cc32)c1C` [SUNITINIB] was tested, and the IC50 was greater than 8 µM.

The molecules below were run on OMC-1 (assay: cells). Conditions: Homo sapiens, OMC-1.
Type: functional, cell-based, Homo sapiens
Description: SANGER: Inhibition of human OMC-1 cell growth in a cell viability assay.
Work on `CCN(CC)CCNC(=O)c1c(C)[nH]c(/C=C2\C(=O)Nc3ccc(F)cc32)c1C` [SUNITINIB] yielded an IC50 greater than 8 µM.

The molecules below were run on P30-OHK (assay: cells). Conditions: Homo sapiens, P30-OHK.
Type: functional, cell-based, Homo sapiens
Description: SANGER: Inhibition of human P30-OHK cell growth in a cell viability assay.
In the case of `CCN(CC)CCNC(=O)c1c(C)[nH]c(/C=C2\C(=O)Nc3ccc(F)cc32)c1C` [SUNITINIB], the IC50 is reported as greater than 8 µM.

What follows are molecules tested on RH-1 (assay: cells). Conditions: Homo sapiens, RH-1.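 Also: growth inhibition of human RH-1 cells, read out with a cell viability assay.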
Type: functional, cell-based, Homo sapiens
Description: SANGER: Inhibition of human RH-1 cell growth in a cell viability assay.
`CCN(CC)CCNC(=O)c1c(C)[nH]c(/C=C2\C(=O)Nc3ccc(F)cc32)c1C` [SUNITINIB] showed an IC50 greater than 8 µM.

These molecules were tested on RPMI-8226 (assay: cells). Conditions: Homo sapiens, RPMI-8226.
Type: functional, cell-based, Homo sapiens
Description: SANGER: Inhibition of human RPMI-8226 cell growth in a cell viability assay.
For `CCN(CC)CCNC(=O)c1c(C)[nH]c(/C=C2\C(=O)Nc3ccc(F)cc32)c1C` [SUNITINIB], the IC50 was 7.51 µM.

What follows are molecules tested on SH-4 (assay: cells). Conditions: Homo sapiens, SH-4.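 Also: growth inhibition of SH-4 cells, read out with a cell viability assay.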
Type: functional, cell-based, Homo sapiens
Description: SANGER: Inhibition of human SH-4 cell growth in a cell viability assay.
`CCN(CC)CCNC(=O)c1c(C)[nH]c(/C=C2\C(=O)Nc3ccc(F)cc32)c1C` [SUNITINIB] showed an IC50 of 5.48 µM.

What follows are molecules tested on SK-N-DZ (assay: cells). Conditions: Homo sapiens, SK-N-DZ.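 Also: growth inhibition of the cancer cell line, read out through a viability assay.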
Type: functional, cell-based, Homo sapiens
Description: SANGER: Inhibition of human SK-N-DZ cell growth in a cell viability assay.
For `CCN(CC)CCNC(=O)c1c(C)[nH]c(/C=C2\C(=O)Nc3ccc(F)cc32)c1C` [SUNITINIB], the IC50 was 4.67 µM.

Each molecule was assayed on SK-NEP-1 (assay: cells). Conditions: Homo sapiens, SK-NEP-1.
Type: functional, cell-based, Homo sapiens
Description: SANGER: Inhibition of human SK-NEP-1 cell growth in a cell viability assay.
With `CCN(CC)CCNC(=O)c1c(C)[nH]c(/C=C2\C(=O)Nc3ccc(F)cc32)c1C` [SUNITINIB] the IC50 was 2.6 µM.

The molecules below were run on SNU-C2B (assay: cells). Conditions: Homo sapiens, SNU-C2B.
Type: functional, cell-based, Homo sapiens
Description: SANGER: Inhibition of human SNU-C2B cell growth in a cell viability assay.
`CCN(CC)CCNC(=O)c1c(C)[nH]c(/C=C2\C(=O)Nc3ccc(F)cc32)c1C` [SUNITINIB] gave an IC50 greater than 8 µM.

These molecules were tested on ALL-PO (assay: cells). Conditions: Homo sapiens, ALL-PO.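 Also: growth inhibition of ALL-PO cells, read out by a cell viability assay.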
Type: functional, cell-based, Homo sapiens
Description: SANGER: Inhibition of human ALL-PO cell growth in a cell viability assay.
With `CCN(CC)CCNC(=O)c1c(C)[nH]c(/C=C2\C(=O)Nc3ccc(F)cc32)c1C` [SUNITINIB] the IC50 was 0.0799 µM.

What follows are molecules tested on ATN-1 (assay: cells). Conditions: Homo sapiens, ATN-1.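 Also: growth inhibition of human ATN-1 cells, read out with a cell viability assay.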
Type: functional, cell-based, Homo sapiens
Description: SANGER: Inhibition of human ATN-1 cell growth in a cell viability assay.
For `CCN(CC)CCNC(=O)c1c(C)[nH]c(/C=C2\C(=O)Nc3ccc(F)cc32)c1C` [SUNITINIB], the IC50 was 3.67 µM.

What follows are molecules tested on BV-173 (assay: cells). Conditions: Homo sapiens, BV-173.
Type: functional, cell-based, Homo sapiens
Description: SANGER: Inhibition of human BV-173 cell growth in a cell viability assay.
Work on `CCN(CC)CCNC(=O)c1c(C)[nH]c(/C=C2\C(=O)Nc3ccc(F)cc32)c1C` [SUNITINIB] yielded an IC50 of 2.34 µM.

Each molecule was assayed on C2BBe1 (assay: cells). Conditions: Homo sapiens, C2BBe1.
Type: functional, cell-based, Homo sapiens
Description: SANGER: Inhibition of human C2BBe1 cell growth in a cell viability assay.
`CCN(CC)CCNC(=O)c1c(C)[nH]c(/C=C2\C(=O)Nc3ccc(F)cc32)c1C` [SUNITINIB] gave an IC50 greater than 8 µM.

The molecules below were run on CAS-1 (assay: cells). Conditions: Homo sapiens, CAS-1.
Type: functional, cell-based, Homo sapiens
Description: SANGER: Inhibition of human CAS-1 cell growth in a cell viability assay.
With `CCN(CC)CCNC(=O)c1c(C)[nH]c(/C=C2\C(=O)Nc3ccc(F)cc32)c1C` [SUNITINIB] the IC50 was greater than 8 µM.
